Results: publication PMC10111413 (ACS Infectious Diseases, 2023)
Values after ≈ are worked out from the molar mass of the structure shown. Where a SMILES comes first, the peptide text is derived from it. Bridges are numbered along the chain shown (N, C = ends). [ ]: non-standard residue; d: D form. The star is where a group is joined. ξ: configuration not given here. Hexanoyl(4ξ-Me) = CCC(C)CCC(=O)*; dOrn = NCCC[C@@H](N)C(=O)O; Orn = NCCC[C@H](N)C(=O)O

How the values were obtained:
K. pneumoniae ATCC 13883 = format: cell-based; details: ATCC 13883, 18 h
Protocol: (§1) The antibacterial activities of relacidine A (3a) and B (4a), along with diastereomers 3b and 4b–d and relacidamide (5), were assessed using a standard microbroth dilution assay to establish minimum inhibitory concentration (MIC) values against a panel of Gram-negative bacteria (Table 1). The MIC values measured for synthetic relacidine A (3a) and B (4a) agree well with those previously published.[9] […] Relacidine A (3a) and B (4a), as well as relacidamide (5), were further tested against a panel of colistin-resistant A. baumannii clinical isolates, which confirmed their ability to prevent the growth of colistin-resistant isolates (Supplemental Table S2). […] Also of interest was the finding that while relacidine B (4a) induced <1% hemolysis, a substitution of either the L-Ala or L-Ser to D-Ala or D-Ser increased hemolytic activity to 8–12%. […] The greater hydrolytic stability of relacidine B would appear to be attributable to the increased steric bulk of the Ala side chain next to the ester linkage (compared with the methylene of Gly in relacidine A), which may hinder the nucleophilic attack of water at the ester carbonyl.
(§2) Colistin sulfate was purchased from Activate Scientific. Kanamycin monosulfate was purchased from MP Biomedicals. E. coli ATCC 25922, S. aureus USA300 (ATCC BAA1717), and K. pneumoniae ATCC 13883 belong to the American Type Culture Collection (ATCC). P. aeruginosa PAO1 was kindly provided by L.H.C. Quarles Van Ufford of Utrecht University, Utrecht, The Netherlands. E. coli ATCC 25922 MCR-1 was transfected in-house using the pGDP2-MCR1 plasmid kindly provided by Yong-Xin Li of The University of Hong Kong, Hong Kong, China. Sheep blood agar plates (ref. PB5039A) were purchased from Thermo Scientific. Tryptic soy broth (ref. 02-200-500) was purchased from Scharlab. Mueller-Hinton broth (ref. X927.1) was purchased from Carl Roth. Polypropylene 96-wells plates (ref. 3879) were purchased from Corning.
(§3) MICs were determined according to Clinical and Standards Laboratory Institute (CLSI) guidelines. Blood agar plates were inoculated with glycerol stocks of E. coli ATCC 25922, K. pneumoniae ATCC 13883, P. aeruginosa PAO1, and S. aureus USA300. The inoculated agar plates were then incubated for 16 h at 37 °C. Individually grown colonies were subsequently used to inoculate 5 mL aliquots of tryptic soy broth (TSB) that were then incubated at 37 °C with shaking at 220 rpm. E. coli 25922 MCR-1 glycerol stock was used to inoculate 5 mL of TSB supplemented with kanamycin that was then incubated for 16 h at 37 °C with shaking at 220 rpm. The next day, the culture was diluted 100-fold in TSB supplemented with kanamycin and incubated at 37 °C with shaking at 220 rpm. In parallel, the lipopeptide antibiotic DMSO stocks to be assessed were serially diluted with Mueller Hinton broth (MHB) in polypropylene 96-well plates (50 μL in each well). Colistin sulfate stocks were dissolved in water before being diluted with MHB. Aliquots of the inoculated TSB were incubated until an OD600 of around 0.5 was reached. The bacterial suspensions were then diluted with MHB (2 × 10^5 cfu mL^–1) and added to the microplates containing the test compounds (50 μL to each well). The well plates were sealed with an adhesive membrane, and after 18 h of incubation at 37 °C with shaking at 600 rpm, the wells were visually inspected for bacterial growth. MIC values reported are based on three technical replicates and defined as the lowest concentration of the compound that prevented visible growth of bacteria.

S. aureus USA300 = format: cell-based; details: USA300, 18 h
Protocol: as §1, §2, §3

P. aeruginosa PAO1 = format: cell-based; details: PAO1, 18 h
Protocol: as §1, §2, §3

E. coli ATCC 25922 mcr-1 = format: cell-based; details: CLSI microbroth dilution, Mueller Hinton broth, 18 h at 37 °C, visual read-out, three technical replicates; mcr-1 colistin resistance plasmid
Protocol: as §1, §2, §3

E. coli ATCC 25922 = format: cell-based; details: ATCC 25922, 18 h
Protocol: as §1, §2, §3

[1] = human serum (obtained from Sigma Aldrich, product number: H4522); details: 37 °C, up to 24 h
A. baumannii HUMC1 = format: cell-based; details: HUMC1, 18 h
Protocol: (§4) VIII. Antimicrobial testing
(§5) Table S2. Minimum inhibitory concentrations (MICs) determined against panel of previously characterized colistin-resistant A. baumannii clinical isolates5
(§6) Strain Relacidine A (3a) Relacidine B (4a) Relacidamide (5) Colistin […]
(§7) aMIC values given in µg/ml.
(§8) All minimum inhibitory concentrations were determined according to Clinical and Standards Laboratory Institute (CLSI) guidelines. Blood agar plates were inoculated from glycerol stocks of the different A. baumannii strains used and then incubated for 16 h at 37 °C . Individually grown colonies were subsequently used to inoculate 5 mL aliquots of TSB that were then incubated at 37 °C. In parallel, the lipopeptide antibiotics DMSO stocks to be assessed were serially diluted with cation-adjusted MHB in polypropylene 96-well plates (50 µL in each well). Colistin sulfate stocks were dissolved in water before being diluted with cation-adjusted MHB. The A. baumannii inoculated TSB aliquots were incubated until an OD600 of around 0.5 was reached. The bacterial suspensions were then diluted with cation-adjusted MHB (2 x 10^5 CFU mL-1) and added to the microplates containing the test compounds (50 µL to each well). The well-plates were sealed with an adhesive membrane and after 18 h of incubation at 37 °C visually inspected for bacterial growth. MIC values reported are based on three technical replicates and defined as the lowest concentration of the compound that prevented visible

A. baumannii ATCC 17978 = format: cell-based; details: ATCC 17978, 18 h
Protocol: as §4, §5, §6, §7, §8

A. baumannii BV173 = format: cell-based; details: BV173, 18 h
Protocol: as §4, §5, §6, §7, §8

A. baumannii NCTC 13304 = format: cell-based; details: NCTC 13304, 18 h
Protocol: as §4, §5, §6, §7, §8

A. baumannii BV172 = format: cell-based; details: BV172, 18 h
Protocol: as §4, §5, §6, §7, §8

A. baumannii BV95 = format: cell-based; details: BV95, 18 h
Protocol: as §4, §5, §6, §7, §8

A. baumannii LAC-4 = format: cell-based; details: LAC-4, 18 h
Protocol: as §4, §5, §6, §7, §8

A. baumannii NCTC 13420 = format: cell-based; details: NCTC 13420, 18 h
Protocol: as §4, §5, §6, §7, §8

A. baumannii BV94 = format: cell-based; details: BV94, 18 h
Protocol: as §4, §5, §6, §7, §8

Compound | MIC K. pneumoniae ATCC 13883 (K. pneumoniae ATCC 13883) [µg/mL] | MIC S. aureus USA300 (S. aureus USA300) [µg/mL] | MIC P. aeruginosa PAO1 (P. aeruginosa PAO1) [µg/mL] | MIC E. coli ATCC 25922 mcr-1 (E. coli ATCC 25922 mcr-1) [µg/mL] | MIC E. coli ATCC 25922 (E. coli ATCC 25922) [µg/mL] | not cleaved [1] | MIC A. baumannii HUMC1 (A. baumannii HUMC1) [µg/mL] | MIC A. baumannii ATCC 17978 (A. baumannii ATCC 17978) [µg/mL] | MIC A. baumannii BV173 (A. baumannii BV173) [µg/mL] | MIC A. baumannii NCTC 13304 (A. baumannii NCTC 13304) [µg/mL] | MIC A. baumannii BV172 (A. baumannii BV172) [µg/mL] | MIC A. baumannii BV95 (A. baumannii BV95) [µg/mL] | MIC A. baumannii LAC-4 (A. baumannii LAC-4) [µg/mL] | MIC A. baumannii NCTC 13420 (A. baumannii NCTC 13420) [µg/mL] | MIC A. baumannii BV94 (A. baumannii BV94) [µg/mL]
CCC(C)CCC(=O)N[C@H](CO)C(=O)N[C@H](Cc1ccc(O)cc1)C(=O)N[C@H](Cc1c[nH]c2ccccc12)C(=O)N[C@H](CCCN)C(=O)N[C@@H](CCCN)C(=O)NCC(=O)N[C@H](CCCN)C(=O)N[C@@H](Cc1c[nH]c2ccccc12)C(=O)N[C@@H]1C(=O)N[C@@H]([C@@H](C)CC)C(=O)NCC(=O)N[C@@H](CO)C(=O)N[C@H](C)C(=O)O[C@@H]1C (stereo partly drawn) [4b, D-Ala13, L-Ser12-Relacidine B] ({Hexanoyl(4ξ-Me)}-[dS][dY][dW][dOrn][Orn]G[dOrn]WTIGS[dA]; ester 9-C) | 4 (≈ 2.56 µM) | >32 | 4 (≈ 2.56 µM) | 2 to 4 | 2 (≈ 1.28 µM) | – | – | – | – | – | – | – | – | – | –
D-Ser1 D-Tyr2 D-Trp3 D-Orn4 Orn5 Gly6 D-Orn7 Trp8 Thr9 Ile10 Gly11 Ser12 Ala13 Lipid | – | – | – | – | – | highly resistant to degradation in human serum even after 24 h of incubation | – | – | – | – | – | – | – | – | –
CCC(C)CCC(=O)N[C@H](CO)C(=O)N[C@H](Cc1ccc(O)cc1)C(=O)N[C@H](Cc1c[nH]c2ccccc12)C(=O)N[C@H](CCCN)C(=O)N[C@@H](CCCN)C(=O)NCC(=O)N[C@H](CCCN)C(=O)N[C@@H](Cc1c[nH]c2ccccc12)C(=O)N[C@@H]1C(=O)N[C@@H]([C@@H](C)CC)C(=O)NCC(=O)N[C@H](CO)C(=O)NCC(=O)O[C@@H]1C (stereo partly drawn) [3b, D-Ser12-Relacidine A] ({Hexanoyl(4ξ-Me)}-[dS][dY][dW][dOrn][Orn]G[dOrn]WTIG[dS]G; ester 9-C) | 4 (≈ 2.58 µM) | >32 | 2 (≈ 1.29 µM) | 4 (≈ 2.58 µM) | 2 to 4 | – | – | – | – | – | – | – | – | – | –
CCC(C)CCC(=O)N[C@H](CO)C(=O)N[C@H](Cc1ccc(O)cc1)C(=O)N[C@H](Cc1c[nH]c2ccccc12)C(=O)N[C@H](CCCN)C(=O)N[C@@H](CCCN)C(=O)NCC(=O)N[C@H](CCCN)C(=O)N[C@@H](Cc1c[nH]c2ccccc12)C(=O)N[C@@H]1C(=O)N[C@@H]([C@@H](C)CC)C(=O)NCC(=O)N[C@@H](CO)C(=O)N[C@@H](C)C(=O)O[C@@H]1C (stereo partly shown) [4a, Relacidine B] ({Hexanoyl(4ξ-Me)}-[dS][dY][dW][dOrn][Orn]G[dOrn]WTIGSA; ester 9-C) | 4 (≈ 2.56 µM) | >32 | 4 (≈ 2.56 µM) | 2 (≈ 1.28 µM) | 1 (≈ 0.639 µM) | – | 8 (≈ 5.12 µM) | 4 (≈ 2.56 µM) | 16 (≈ 10.2 µM) | 4 (≈ 2.56 µM) | 16 (≈ 10.2 µM) | 8 (≈ 5.12 µM) | 8 (≈ 5.12 µM) | 16 (≈ 10.2 µM) | 16 (≈ 10.2 µM)
CCC(C)CCC(=O)N[C@H](CO)C(=O)N[C@H](Cc1ccc(O)cc1)C(=O)N[C@H](Cc1c[nH]c2ccccc12)C(=O)N[C@H](CCCN)C(=O)N[C@@H](CCCN)C(=O)NCC(=O)N[C@H](CCCN)C(=O)N[C@@H](Cc1c[nH]c2ccccc12)C(=O)N[C@@H]1C(=O)N[C@@H]([C@@H](C)CC)C(=O)NCC(=O)N[C@@H](CO)C(=O)NCC(=O)O[C@@H]1C (stereo partly shown) [3a, Relacidine A] ({Hexanoyl(4ξ-Me)}-[dS][dY][dW][dOrn][Orn]G[dOrn]WTIGSG; ester 9-C) | 4 (≈ 2.58 µM) | >32 | 4 (≈ 2.58 µM) | 2 to 4 | 2 (≈ 1.29 µM) | – | 16 (≈ 10.3 µM) | 8 (≈ 5.16 µM) | 8 (≈ 5.16 µM) | 4 (≈ 2.58 µM) | 16 (≈ 10.3 µM) | 8 (≈ 5.16 µM) | 4 (≈ 2.58 µM) | 8 (≈ 5.16 µM) | 8 (≈ 5.16 µM)
CCC(C)CCC(=O)N[C@H](CO)C(=O)N[C@H](Cc1ccc(O)cc1)C(=O)N[C@H](Cc1c[nH]c2ccccc12)C(=O)N[C@H](CCCN)C(=O)N[C@@H](CCCN)C(=O)NCC(=O)N[C@H](CCCN)C(=O)N[C@@H](Cc1c[nH]c2ccccc12)C(=O)N[C@@H]1C(=O)N[C@@H]([C@@H](C)CC)C(=O)NCC(=O)N[C@H](CO)C(=O)N[C@@H](C)C(=O)O[C@@H]1C (stereo partly drawn) [4c, L-Ala13, D-Ser12-Relacdine B] ({Hexanoyl(4ξ-Me)}-[dS][dY][dW][dOrn][Orn]G[dOrn]WTIG[dS]A; ester 9-C) | 2 to 4 | >32 | 4 (≈ 2.56 µM) | 1 to 2 | 1 to 2 | – | – | – | – | – | – | – | – | – | –
CCC(C)CCC(=O)N[C@H](CO)C(=O)N[C@H](Cc1ccc(O)cc1)C(=O)N[C@H](Cc1c[nH]c2ccccc12)C(=O)N[C@H](CCCN)C(=O)N[C@@H](CCCN)C(=O)NCC(=O)N[C@H](CCCN)C(=O)N[C@@H](Cc1c[nH]c2ccccc12)C(=O)N[C@@H]1C(=O)N[C@@H]([C@@H](C)CC)C(=O)NCC(=O)N[C@H](CO)C(=O)N[C@H](C)C(=O)O[C@@H]1C (stereo partly drawn) [4d, D-Ala13, D-Ser12-Relacdine B] ({Hexanoyl(4ξ-Me)}-[dS][dY][dW][dOrn][Orn]G[dOrn]WTIG[dS][dA]; ester 9-C) | 2 to 4 | >32 | 8 (≈ 5.12 µM) | 2 to 4 | 2 (≈ 1.28 µM) | – | – | – | – | – | – | – | – | – | –
